Data as given in PMC10714399, “Open Source Antibiotics: Simple Diarylimidazoles Are Potent against Methicillin-Resistant Staphylococcus aureus” (ACS Infectious Diseases, 2023).
Converted amounts (≈) assume the structure as drawn.

What was measured:
[1] = test system: PMM (primary mouse macrophages); assay: Toxicity against PMM; type: cell-based; conditions: PMM
Experimental: (§1) ADME and toxicity for compounds were measured according to procedures outlined in the manuscript submitted in parallel to this one;2 other procedures were used for those compounds analysed by Monash University (in vitro ADME) or UCL (toxicity), both described in the main

[2] = test system: MRC-5SV2 (human lung fibroblast cell line); assay: Toxicity against MRC-5SV2; type: cell-based; conditions: MRC5 cells
Experimental: as §1

THP1 = assay: Toxicity against THP1; type: cell-based; conditions: THP1 cells
From the text: Supplement id3c00286_si_002.xlsx, sheet "Series 2 Data" | column: THP1 TC50 (uM)

[3] = Rat hepatocyte intrinsic clearance; type: in vitro ADME; conditions: rat hepatocytes, NEU
[4] = Human liver microsome intrinsic clearance; type: in vitro ADME; conditions: human liver microsomes, NEU
[5] = test system: Enterococcus faecalis ATCC 51299 (vanA-positive; vancomycin-resistant); assay: In vitro antibacterial activity, MIC (UCL), VRE; type: cell-based; conditions: read-out: VRE MIC (UCL)
Procedure, shortened: (§2)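 Growth inhibition was read as MIC across a two-fold range of 32 down to 0.03 μg/mL in isosensitest broth. Bacteria from overnight plates were set to A600 0.1 in PBS, about 1 × 10^8 CFU/mL, and diluted 1:100 before inoculation.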

LogD7.4 (Chrom Log D) = type: physicochemical; conditions: chromatographic system (Chrom Log D); pH 7.4, NEU; read-out: LogD 7.4 (NEU)
U2OS = assay: Toxicity against U2OS; type: cell-based; conditions: U2OS cells
From the text: Supplement id3c00286_si_002.xlsx, sheet "Series 2 Data" | column: U2OS TC50 (uM)

Aqueous solubility = type: physicochemical; conditions: NEU
[6] = test system: Staphylococcus aureus NCTC 13373 (mecA-positive; methicillin-resistant); assay: In vitro antibacterial activity, MIC (UCL School of Pharmacy assay), MRSA; type: cell-based; conditions: Staphylococcus aureus, UCL; read-out: MRSA MIC (UCL)
Procedure, shortened: as §2

[7] = In vitro metabolic stability, human liver microsomes (Monash); type: in vitro ADME; conditions: NADPH
Experimental: (§3) The metabolic stability assay was performed by incubating each test compound with a suspension of liver microsomes (0.4 mg/mL protein, 1 μM substrate, 37 °C). Microsomes were purchased from XenoTech. The metabolic reaction was initiated by the addition of an NADPH-regenerating system and quenched at various time points over a 60 min incubation by the addition of acetonitrile containing metolazone as an internal standard. Control samples (containing no NADPH) were included (quenched at 2, 30, and 60 min) to monitor for potential degradation in the absence of cofactor. […]
(§4) d) In Vitro Metabolic Stability
(§5) The metabolic stability assay was performed by incubating each test compound with a suspension of liver
(§6) microsomes (0.4 mg/mL, 37°C). The metabolic reaction was initiated by the addition of an NADPH-regenerating
(§7) system and quenched at various time points over a 60 minute incubation by the addition of acetonitrile containing
(§8) metolazone as internal standard. Control samples (containing no NADPH) were included (quenched at 2, 30 and 60
(§9) minutes) to monitor for potential degradation in the absence of cofactor.
(§10) The human liver microsomes used in this experiment were supplied by XenoTech, lot # 1710084.The rat liver
(§11) microsomes used in this experiment were supplied by XenoTech, lot # 1610290. Microsomal incubations were
(§12) performed at a substrate concentration of 1 µM.
(§13) Data analysis and interpretation:
(§14) Substrate depletion as a function of time was analysed as described by Obach (1999) Drug Metab. Dispos., 27:1350-
(§15) 1359. Intrinsic clearance (CLint) values were classified at the limits of low and high clearance bands based on a
(§16) rearrangement of the well stirred model of hepatic elimination. It should be noted that the potential impact of
(§17) compound binding (either in microsomes or in blood) on the relationship between in vitro intrinsic clearance and
(§18) hepatic clearance in vivo has not been accounted for in these studies.
(§19) In Vitro Intrinsic Clearance
(§20) Species (µL/min/mg protein)
(§21) Low Clearance High Clearance
(§22) Experimental results are tabulated on the following page(s).
(§23) (1 picture or pasted object on this page, not shown here)

[8] = Kinetic solubility estimation using nephelometry (Monash); type: physicochemical; conditions: for Sol 2.0: 0.01 M HCl, approx pH 2.0; for Sol 6.5: pH 6.5 phosphate buffer
Experimental: Compound in DMSO was spiked into either pH 6.5 phosphate buffer or 0.01 M HCl (approximately pH 2.0) with the final DMSO concentration being 1%. […]
b) Kinetic Solubility Estimation using Nephelometry (SolpH)
Compound in DMSO was spiked into either pH 6.5 phosphate buffer or 0.01 M HCl (approx pH 2.0) with the final
DMSO concentration being 1%. After 30 minutes had elapsed, samples were then analysed via Nephelometry to
determine a solubility range. See Bevan and Lloyd (2000) Anal Chem, 72:1781-1787. […]
(§24) In Vitro Intrinsic Clearance […]
as §22, §23

[9] = Distribution coefficient estimation using chromatography, gLogD (Monash); type: physicochemical
From the text: Partition coefficient values (LogD) of the test compounds were estimated at pH 7.4 by the correlation of their chromatographic retention properties against the characteristics of a series of standard compounds with known partition coefficient values. The method employed is a gradient HPLC-based derivation of the method developed by Lombardo.[42] […]
c) Distribution Coefficient Estimation using Chromatography (gLogDpH)
Partition coefficient values (LogD) of the test compounds were estimated at pH 7.4 by correlation of their
chromatographic retention properties against the characteristics of a series of standard compounds with known
partition coefficient values. […]
as §24, §22, §23

[10] = In vitro metabolic stability, rat liver microsomes (Monash); type: in vitro ADME; conditions: NADPH
Experimental: as §3, §4, §5, §6, §7, §8, §9, §10, §11, §12, §13, §14, §15, §16, §17, §18, §19, §20, §21, §22, §23

| Rat Hep CLint (NEU) [3] [uL/min/10x6 cells] | HLM CLint (NEU) [4] [uL/min/mg protein] | MIC [5] [mg/L] | chromatographic logD (LogD7.4 (Chrom Log D)) | Aqueous Solubility (NEU) (Aqueous solubility) [µM] | MIC [6] [mg/L] | CLint, in vitro [7] [µL/min/mg protein] | T1/2 [7] [min] | Sol 2.0 [8] [µg/mL] | Sol 6.5 [8] [µg/mL] | gLogD at pH 7.4 [9] | CLint, in vitro [10] [µL/min/mg protein] | T1/2 [10] [min] | SMILES | PMM TC50 [1] [µM] | MRC5 TC50 [2] [µM] | THP1 TC50 (THP1) [µM] | U2OS TC50 (U2OS) [µM] |
| --- | --- | --- | --- | --- | --- | --- | --- | --- | --- | --- | --- | --- | --- | --- | --- | --- | --- |
| 49.8 | 168 | > 32 | 3 | 178 | 32 (≈ 111 µM) |  |  |  |  |  |  |  | Fc1ccc(-c2c(-c3ccccn3)nc3ccccn23)cc1 [OSA_000859] | 32 | 10.3 | 17 | 4.54 |
|  |  |  |  |  |  | 37 | 47 | 25 to 50 | 12.5 to 25 | 1.6 | 74 | 23 | c1ccc(-c2nc3n(c2-c2ccc4c(c2)OCO4)CCS3)nc1 [UNC-ALM-DAI-16] |  |  |  |  |
|  |  |  |  |  |  | 47 | 37 | > 100 | 25 to 50 | 1.8 | 99 | 18 | c1ccc(-c2nc3ccccn3c2-c2ccc3c(c2)OCO3)nc1 [UNC-ALM-DAI-18] |  |  |  |  |
|  |  |  |  |  |  | 51 | 34 | > 100 | 25 to 50 | 1.9 | 72 | 24 | c1ccc(-c2nc3n(c2-c2ccc4occc4c2)CCC3)nc1 [UNC-ALM-DAI-27] |  |  |  |  |
